Measurements: publication PMC4492579, “Potent and Selective Triazole-Based Inhibitors of the Hypoxia-Inducible Factor Prolyl-Hydroxylases with Activity in the Murine Brain” (PLoS ONE, 2015)
Counter-ions that a name gives are not always drawn.

Columns and labels:
[1] = target: PHD2 (Homo sapiens, UniProt Q9GZT9); assay: Competition-based NMR reporter ligand displacement assay ([13C]-2OG / [13C]-CODD); assay type: binding; settings: 50 μM apo-PHD2, 400 μM Zn(II), 400 μM competitor
Procedure: For 2OG displacement assays, selective ^1H-^13C 1D-HSQC experiments were conducted at 700 MHz using a Bruker Avance III spectrometer equipped with an inverse TCI cryoprobe optimized for ^1H observation. The CLIP-HSQC sequence was used (without ^13C decoupling). Typical experimental parameters were as follows: acquisition time 0.58 s, relaxation delay 2 s, number of transients 256−1600. The 1JCH was set to 160 Hz. For the selective version of the experiment, a 6.8 ms Q3 180 degree pulse was used, and selective irradiation was applied at the appropriate [^13C] chemical shift. Three millimeter MATCH tubes with a 160 μL final sample volume were used. Solutions were buffered using Tris-D11 50 mM (pH 7.5) dissolved in 90% H2O and 10% D2O. Assays were conducted at 298 K in solutions typically containing 50 μM apo-PHD2, 400 μM Zn(II), 50 μM 1,2,3,4-[^13C]-2OG or [^13C]-labeled CODD (uniformly [^13C]-labeled at proline-564) and 400 μM competitor (except unlabeled CODD competitor used at 800 μM). Selective irradiation was applied at 30.5 ppm for [^13C]-2OG and 24.25 ppm for [^13C]-labeled CODD. Percentage displacement was calculated according to equation: (I−I0)/(Iblank−I0) where I 0 is the intensity of the reporter in the presence of protein but without inhibitor, I is the intensity of the reporter in the presence of protein and inhibitor, and I blank is the intensity of the reporter without protein or inhibitor.
The results reveal that the previously described inhibitor IOX2 displaces 2OG from PHD2 (S3A Fig), consistent with its predicted binding mode. […] Previous crystallographic studies have shown that the HIF substrate can still bind even when the 2OG active site is occupied by some, but not all, inhibitors.

[2] = target: T1, JMJD2A (KDM4A) (Homo sapiens, UniProt O75164); assay: KDM AlphaScreen assay, JMJD2A
T1 sequence (O75164 1-1064): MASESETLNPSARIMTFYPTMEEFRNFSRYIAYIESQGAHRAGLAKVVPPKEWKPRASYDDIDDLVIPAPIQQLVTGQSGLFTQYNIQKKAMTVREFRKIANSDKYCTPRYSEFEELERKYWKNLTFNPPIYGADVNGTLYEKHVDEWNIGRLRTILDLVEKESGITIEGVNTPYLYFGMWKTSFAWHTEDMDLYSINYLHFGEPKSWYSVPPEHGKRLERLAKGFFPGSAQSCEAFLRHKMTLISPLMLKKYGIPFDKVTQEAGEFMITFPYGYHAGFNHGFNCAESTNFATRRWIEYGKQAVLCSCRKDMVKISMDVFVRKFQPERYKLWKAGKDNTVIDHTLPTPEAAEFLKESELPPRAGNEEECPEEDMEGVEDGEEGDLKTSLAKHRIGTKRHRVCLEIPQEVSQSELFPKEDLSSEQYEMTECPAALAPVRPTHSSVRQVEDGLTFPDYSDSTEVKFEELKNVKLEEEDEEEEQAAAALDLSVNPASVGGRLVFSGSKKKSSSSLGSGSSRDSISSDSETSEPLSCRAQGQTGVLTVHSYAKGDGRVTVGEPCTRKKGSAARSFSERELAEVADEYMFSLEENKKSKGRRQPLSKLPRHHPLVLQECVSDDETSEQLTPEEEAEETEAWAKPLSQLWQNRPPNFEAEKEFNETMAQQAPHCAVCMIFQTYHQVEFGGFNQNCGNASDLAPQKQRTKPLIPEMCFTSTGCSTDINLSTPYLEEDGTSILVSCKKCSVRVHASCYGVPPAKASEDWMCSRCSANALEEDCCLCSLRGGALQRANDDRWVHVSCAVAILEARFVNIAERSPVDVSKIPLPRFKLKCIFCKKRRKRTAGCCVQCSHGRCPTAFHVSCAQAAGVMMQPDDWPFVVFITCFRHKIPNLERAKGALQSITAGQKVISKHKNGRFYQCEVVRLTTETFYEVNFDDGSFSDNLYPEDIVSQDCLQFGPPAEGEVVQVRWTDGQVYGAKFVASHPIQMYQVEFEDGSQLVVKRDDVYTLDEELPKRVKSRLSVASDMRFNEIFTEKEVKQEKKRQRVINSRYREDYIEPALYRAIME
Procedure: Inhibition assays for PHD2 (AlphaScreen) [9], the KDMs (AlphaScreen) [17], BBOX [18] and FTO [19] were carried out as previously described. N-Terminally biotinylated 19-residue human HIF1α CODD peptide ([sequence]) used in the PHD2 inhibition assays was from GL Biochem (Shanghai). IC50 values were calculated using nonlinear regression with normalized dose-response fit using GraphPad Prism 5.

[3] = target: T2, FBXL11 (KDM2A) (Homo sapiens, UniProt Q9Y2K7); assay: KDM AlphaScreen assay, FBXL11
T2 sequence (Q9Y2K7 1-1162): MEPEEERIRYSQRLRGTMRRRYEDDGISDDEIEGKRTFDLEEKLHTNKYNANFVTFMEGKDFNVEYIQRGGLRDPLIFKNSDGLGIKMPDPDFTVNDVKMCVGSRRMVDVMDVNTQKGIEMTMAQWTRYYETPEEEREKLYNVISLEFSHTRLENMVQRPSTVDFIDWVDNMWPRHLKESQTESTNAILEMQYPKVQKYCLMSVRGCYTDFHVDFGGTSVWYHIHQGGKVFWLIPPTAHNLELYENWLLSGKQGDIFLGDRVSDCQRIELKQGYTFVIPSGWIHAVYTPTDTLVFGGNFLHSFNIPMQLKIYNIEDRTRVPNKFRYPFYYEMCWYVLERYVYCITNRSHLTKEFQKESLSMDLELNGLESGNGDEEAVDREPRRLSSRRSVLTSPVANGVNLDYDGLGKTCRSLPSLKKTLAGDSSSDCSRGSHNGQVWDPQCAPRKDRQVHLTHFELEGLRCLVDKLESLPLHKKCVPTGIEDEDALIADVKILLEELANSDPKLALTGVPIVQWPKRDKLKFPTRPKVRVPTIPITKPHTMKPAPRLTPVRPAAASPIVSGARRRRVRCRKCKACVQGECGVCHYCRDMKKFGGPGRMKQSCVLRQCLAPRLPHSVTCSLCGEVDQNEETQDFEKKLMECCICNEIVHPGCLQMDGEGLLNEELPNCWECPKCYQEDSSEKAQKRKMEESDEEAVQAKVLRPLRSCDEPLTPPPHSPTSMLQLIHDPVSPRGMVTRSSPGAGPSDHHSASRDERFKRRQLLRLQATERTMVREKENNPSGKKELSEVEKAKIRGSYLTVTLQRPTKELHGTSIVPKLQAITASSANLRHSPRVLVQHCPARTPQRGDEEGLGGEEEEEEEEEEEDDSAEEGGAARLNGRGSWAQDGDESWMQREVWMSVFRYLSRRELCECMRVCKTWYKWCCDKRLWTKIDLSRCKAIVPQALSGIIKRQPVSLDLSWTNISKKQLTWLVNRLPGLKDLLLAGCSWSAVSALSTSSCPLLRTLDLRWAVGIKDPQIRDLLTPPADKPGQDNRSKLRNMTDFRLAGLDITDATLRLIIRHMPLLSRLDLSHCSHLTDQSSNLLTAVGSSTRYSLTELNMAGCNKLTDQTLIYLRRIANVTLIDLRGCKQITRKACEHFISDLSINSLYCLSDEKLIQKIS
Procedure: Inhibition assays for PHD2 (AlphaScreen) [9], the KDMs (AlphaScreen) [17], BBOX [18] and FTO [19] were carried out as previously described. […] IC50 values were calculated using nonlinear regression with normalized dose-response fit using GraphPad Prism 5.

Sequence of PHD2 (Q9GZT9 whole entry): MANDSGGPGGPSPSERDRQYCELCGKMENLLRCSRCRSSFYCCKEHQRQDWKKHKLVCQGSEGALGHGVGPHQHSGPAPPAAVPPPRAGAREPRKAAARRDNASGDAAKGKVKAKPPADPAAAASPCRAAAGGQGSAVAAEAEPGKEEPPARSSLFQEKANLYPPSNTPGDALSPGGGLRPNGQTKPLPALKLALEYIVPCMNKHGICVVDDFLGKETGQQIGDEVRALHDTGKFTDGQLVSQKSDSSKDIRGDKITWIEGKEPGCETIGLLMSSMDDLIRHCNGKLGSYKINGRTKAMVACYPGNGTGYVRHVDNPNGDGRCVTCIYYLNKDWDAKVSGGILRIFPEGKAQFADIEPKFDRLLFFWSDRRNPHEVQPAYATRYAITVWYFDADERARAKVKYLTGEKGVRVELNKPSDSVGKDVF

SMILES	displacement of [13C]-2OG from PHD2 [1]	displacement of [13C]-CODD from PHD2 [1]	IC50 [2] [µM]	IC50 [3] [µM]
O=C(O)CNC(=O)c1c(O)c2ccccc2n(Cc2ccccc2)c1=O [IOX2]	displaces 2OG	not displaced	–	–
CC(C)(C)OC(=O)c1ccc(-n2[nH]cc(-n3ccnn3)c2=O)nc1 [IOX4, t-Butyl 6-(5-oxo-4-(1H-1,2,3-triazol-1-yl)-2,5-dihydro-1H-pyrazol-1-yl)nicotinate]	displaces 2OG	remained bound	> 20	20
O=C(O)c1ccc(-n2[nH]cc(-n3ccnn3)c2=O)nc1 [compound 1, 6-(5-oxo-4-(1H-1,2,3-triazol-1-yl)-2,5-dihydro-1H-pyrazol-1-yl)pyridine-3-carbocylic acid hydrochloride]	–	–	> 20	20
